# Experimental data taken from patent publication US20220225910A1, “Modulating Electron Transfer Kinetics in E-DNA-type Sensors” (The Regents of the University of California, priority 2019, published 2022).
# Like-named read-outs stand apart in the source and are kept apart here. {C6SH} = six-carbon thiol for deposition on gold; {MB} = methylene blue redox reporter
# Tests used:
# E-AB sensor = assay: In vivo control injections, sensor specificity; design: species or system Sprague-Dawley rats; settings: camptothecin E-AB sensor in live rat, KDM
# Source text: FIGS. 6A, 6B, and 6C. FIG. 6A depicts signals collected at high (120 Hz) and low (10 Hz) frequencies by a sensor of the invention. […] FIG. 6B: taking the difference (KDM) between the normalized high (120 Hz) and low (10 Hz) frequency signals produces a stable baseline.
# [1] = In vivo pharmacokinetic measurement with indwelling E-AB sensor in jugular vein; settings: rat; for distribution rate (a): intravenous
# Description: In-vivo measurements. All in vivo measurements were performed using a three-electrode setup in which the counter electrodes were made of platinum wire and the reference electrodes were a silver wire coated with a silver chloride film as described above. The measurements carried out in vivo were recorded using a handheld potentiostat from CH Instruments (Model 1242 B). Square Wave Voltammetry (SWV) was performed using a potential window of −0.1 to −0.45 V, a potential step of 0.001 V and 0.05 V amplitude
# For in vivo measurements a 30 min sensor baseline was established before the drug infusion. A 3 mL syringe filled with the target drug was connected to the sensor-free catheter (placed in the jugular opposite that in which the sensor is emplaced) and placed in a motorized syringe pump. […] After drug infusion, recordings were taken for up to 1 hour before the next infusion. The real-time plotting and analysis of voltammetric data were carried out with the help of a script written in Python.
# Animals. In vivo measurements were performed in male and female Sprague-Dawley rats (4-5 months old) weighing between 300 and 500 g. All animals were pair housed in a standard light cycle room (08:00 on, 20:00 off) and allowed ad libitum access to food and water. For in vivo measurements rats were induced under 5% isoflurane anesthesia in a Plexiglas anesthesia chamber. The rats were then maintained on 2-3% isoflurane gas for the duration of the experiment. A small incision was made above each vein, then each vein was isolated. A small hole was cut into each vein with spring-loaded microscissors. The silastic catheter inserted into the left jugular vein was constructed with a bent steel cannula with a screw-type connector and silastic tubing (11 cm, i.d. 0.64 mm, o.d. 1.19 mm). […]
# where A and B are amplitudes, and […] for distribution and elimination, respectively. […] The area under the curve (AUC) was calculated using the parameters A, B, α and β, because integrating the equation 5 from 0 to infinity, it holds: […]
# The clearance (ClT) was calculated by the equation: […]
# [2] = E-AB sensor binding curves in flowing undiluted whole blood
# Description: Titration curves. Experimental titration curves were performed in 10 mL of working buffer (137 mM NaCl, KCl 2.7 mM, Na2HPO4 10 mM, KH2PO4 1.8 mM at pH 7.3) using three E-AB sensors modified with the oligonucleotide probe and using a SWV frequency of 10 and 120 Hz.
# The binding curves performed in whole blood were conducted following the previous described experimental approach but using a closed-loop system with a continuous flow of whole blood (total volume of 20 mL at 1 mL/s) through a circulator pump.
# [3] = E-AB sensor titration curves in working buffer (square wave voltammetry); assay type: binding; settings: simple buffered solution
# Description: Electrode functionalization. […] This was then dissolved in “assembling buffer” (10 mM Na2HPO4 with 1 M NaCl and 1 mM MgCl2 at pH 7.3) at a final concentration of 500 nM. The electrochemically cleaned gold electrodes were then immersed in 200 μL of this solution for 1 hour in the dark. Following this the electrode surface was rinsed with distilled water and incubated overnight at 4° C. in assembling buffer containing 5 mM 6-mercaptohexanol, followed by a further rinse with distilled water before use. […] These were then dissolved in buffer (10 mM Na2HPO4 with 1 M NaCl and 1 mM MgCl2 at pH 7.3) using different ratio of the two DNA probes. The total oligonucleotide concentration was kept constant at 500 nM to maintain a constant DNA probes packing density. The electrochemically cleaned gold electrodes were then immersed in 200 μL of this solution composed of two DNA probes for 1 hour in the dark. Following this step, the electrode surface was rinsed with distilled water and incubated overnight at 4° C. in assembling buffer containing 5 mM 6-mercaptohexanol, followed by a further rinse with distilled water before use. In-vitro measurements. Electrochemical measurements were performed at room temperature using a CH[…] potentiostat with a CHI684 Multiplexer (CH Instruments, Austin, Tex.) and a standard three-electrode cell containing a platinum counter electrode and a Ag/AgCl (3 M KCl) reference electrode. […] Titration curves. […] Using the values estimated from the previous fitting procedure the raw signal current was converted in signal change % (C%) using the following equation: […]
# [4] = Square wave voltammetry frequency vs signal change (%); assay type: binding; settings: aptamer alone on sensor
# Source text: Square wave voltammetry frequency vs signal change (%) plot. […] Then the estimated signal change (%) was plotted in function of the relative square wave frequency.
# [5] = Sensor equilibration time; assay type: binding; settings: in buffer, clinically relevant concentrations, 500 Hz
# Description: Sensor equilibration time. The sensor's equilibration time was determined using the above experimental approach and interrogating the sensor every 5 s in working buffer and using a SWV frequency of 500 Hz. […] The observed signal change was fitted to a single exponential decay to obtain the equilibration time constant of the sensor.
# [6] = Solution binding of the unmodified aptamer, using the intrinsic fluorescence of irinotecan; settings: unmodified aptamer free in solution, read-out: dissociation constant
# [7] = unstructured 10-base strand; cited from earlier work
Molecule,E-AB sensing performance in whole blood [2],signal gain relative to other variants [3],dependence of gain on square-wave frequency [4],other results
O=c1[nH]cc(F)c(=O)[nH]1 [5-fluorouracil],,,,sensor response to control injection (E-AB sensor): do not produce any measurable sensor response
CCc1c2c(nc3ccc(OC(=O)N4CCC(N5CCCCC5)CC4)cc13)-c1cc3c(c(=O)n1C2)COC(=O)[C@]3(O)CC [irinotecan],,,,"variation in CMAX or the rate of the distribution phase between rats ([1]; both, Sprague-Dawley, in vivo, 20 mg/kg): 10-20%; distribution rate (a) ([1]; 10 mg kg (first value)): 0.58 ± 0.07 min; distribution rate (a) ([1]; 20 mg kg (second value)): 0.48 min"
"CA16: camptothecin aptamer, only the G-quadruplex binding pocket: 5′-GGGTGGGTGGGTTGGG-3′ (chemistry not given here)",supported high-gain E-AB sensing,greatest signal gain,only a weak function of square-wave frequency,
"CA28: truncated camptothecin aptamer: 5′-CGGACTTGGGTGGGTGGGTTGGGGTACG-3′ (DNA CGGACTTGGGTGGGTGGGTTGGGGTACG; listed as DNA, chemistry not fully specified)",supported high-gain E-AB sensing,greatest signal gain,only a weak function of square-wave frequency,
"CA32: truncated camptothecin aptamer: 5′-TCCGGACTTGGGTGGGTGGGTTGGGGTACGGT-3′ (DNA TCCGGACTTGGGTGGGTGGGTTGGGGTACGGT; listed as DNA, chemistry not fully specified)",supported high-gain E-AB sensing,greatest signal gain,only a weak function of square-wave frequency,
"CA40: 40-base truncation of the known camptothecin-binding DNA aptamer; G-quadruplex flanked by a 12-base-pair stem (DNA ACGCTCCGGACTTGGGTGGGTGGGTTGGGGTACGGTGCGT; DNA, 5' {C6SH}, 3' {MB}, backbone not given here; further chemistry not fully specified)",,,,"association and dissociation kinetics, time constants [5]: < 5 s; gain [2]: about 15%; Kd ([6]; listed as parent aptamer): 475 nM; Kd [6]: ~475 nM"
"CA40_2MM: camptothecin aptamer, two mismatches: 5′-ACGCTCTGGACTTGGGTGGGTGGGTTGGGGTACGGTGTGT-3′ (DNA ACGCTCTGGACTTGGGTGGGTGGGTTGGGGTACGGTGTGT; listed as DNA, chemistry not fully specified)",,greatest signal gain,,
"SEQ ID NO: 8: secondary moiety: unstructured 10-base strand, random sequence of adenines and thymines, reporter-modified (DNA ATTATTTTTT; reporter-modified, reporter and position not given here)",,,,rate of electron transfer [7]: 80 per second
